{"source": "ChEMBL document CHEMBL1135844", "about": "“Novel human metabolites of the angiotensin-II antagonist tasosartan and their pharmacological effects” (Bioorg Med Chem Lett, 2002)"}
{"target": "T1, Type-1 angiotensin II receptor (Homo sapiens, UniProt P30556)", "T1 sequence (P30556 whole entry)": "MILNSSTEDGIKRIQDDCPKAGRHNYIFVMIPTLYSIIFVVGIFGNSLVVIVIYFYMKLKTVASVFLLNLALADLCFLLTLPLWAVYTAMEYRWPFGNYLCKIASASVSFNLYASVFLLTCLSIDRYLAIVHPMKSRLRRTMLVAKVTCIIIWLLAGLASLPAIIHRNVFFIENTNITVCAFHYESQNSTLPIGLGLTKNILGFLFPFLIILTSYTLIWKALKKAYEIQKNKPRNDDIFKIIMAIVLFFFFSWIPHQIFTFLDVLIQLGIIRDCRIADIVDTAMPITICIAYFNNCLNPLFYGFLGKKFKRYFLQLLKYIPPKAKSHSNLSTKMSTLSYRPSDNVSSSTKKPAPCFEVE", "assay": "Compound was tested in vitro for inhibitory activity against human Angiotensin II receptor in cultured preadipocytes", "assay_type": "cell-based", "units": {"IC50": "nM"}}
{"smiles": "Cc1nc(C(=O)O)c2c(n1)N(Cc1ccc(-c3ccccc3-c3nnn[nH]3)cc1)C(=O)CC2", "IC50": 44}
{"smiles": "O=c1ccc2c(CO)nc(CO)nc2n1Cc1ccc(-c2ccccc2-c2nn[nH]n2)cc1", "IC50": 44}
{"smiles": "Cc1nc(C(=O)O)nc2c1CCC(=O)N2Cc1ccc(-c2ccccc2-c2nnn[nH]2)cc1", "IC50": 23}
{"smiles": "Cc1nc(C)c2c(n1)N(Cc1ccc(-c3ccccc3-c3nnn[nH]3)cc1)C(=O)CC2", "note": "[TASOSARTAN]", "IC50": 38}
